Data from patent US11951167B2, “Targeted liposomes” (GEORGETOWN UNIVERSITY, priority 2012, dated 2024).

Tests used:
[1] = tested on: T98G cells; conditions: TMZ resistant T98G, XTT
Description: The in vitro cell killing ability of the scL-TMZ was compared to free, unencapsulated TMZ in TMZ resistant human brain tumor cell line T98G using the XTT assay.

[2] = tested on: U87MG-Luc xenograft brain tumors; assay: Survival of mice with intracranial GBM tumors (Kaplan-Meier); format: in vivo, nude mice
Protocol: U87MG-Luc xenograft brain tumors were induced in nude mice as described above. 10 days post-inoculation, tumor-bearing animals were i.v. tail vein injected with TMZ alone (25.0 mg/kg/injection), scL-p53 alone (30 ug DNA/mouse/injection) (prepared as described in U.S. Pat. No. 7,780,882) or TMZ in combination with scL-p53. As a control, one group received PBS (vehicle). All i.v. injections were administered 2×/week to a total of 10 injections. The animals were monitored 2-3 times/week and euthanized when moribund. The gray bar in FIG. 27 indicates the duration of treatment.

[3] = tested on: U87MG-Luc xenograft brain tumors; assay: Intracranial tumor growth (BLI, MRI), scL-p53 plus TMZ; format: in vivo, nude mice; conditions: TMZ 5.0 mg/kg, scL-p53 30 ug DNA/mouse, i.v. 2x/week, 10 injections
Protocol: An experiment was performed to examine tumor growth inhibition induced by the sensitization of IC brain tumors to TMZ by systemic administration of scL-p53 prepared as described in U.S. Pat. No. 7,780,882. U87MG-Luc xenograft brain tumors were induced in nude mice by intracranially inoculating U87MG-luc cells. This cell line, obtained from Caliper Life Sciences, has been modified to stably express the Luciferase gene. 10 days post-inoculation, tumor-bearing animals were i.v. tail vein injected with TMZ alone (5.0 mg/kg/injection), scL-p53 alone (30 ug DNA/mouse/injection) or TMZ in combination with scL-p53. As a control, one group received PBS (vehicle). All i.v. injections were administered 2×/week to a total of 10 injections. To assess tumor response, bioluminescence imaging (BLI) was performed using IVIS® Imaging System's Xenogen. FIG. 24 is a comparison of in vivo anti-tumor efficacy of the various groups. Bioluminescence signals which correlate to tumor size are shown in a color map. Red color (at the top of the scale bar): the stronger signal, Violet color (at the bottom of the scale bar): the weaker signal. […] The horizontal bar indicates the duration of treatment (Last treatment=Day 24).
To confirm the bioluminescence findings, the mice were also imaged by MRI, without contrast agent, before and after the mice received 3 weeks of treatment. […]

Cn1nnc2c(C(N)=O)ncn2c1=O [TMZ, temozolomide]
IC50 [1]: > 1000 µM | day by which all of the mice succumbed to their tumor ([2]; TMZ 25.0 mg/kg): ~155 days | Median Survival ([2]; TMZ 25.0 mg/kg, scL-p53 30 ug DNA/mouse, i.v. 2x/week, 10 injections): 112 days | Survival Prolongation (%) ([2]; ratio of the median survival of untreated GBM xenografts): 348% | IC tumor growth during treatment (BLI) [3]: some minimal effect
